In patent US8536202B2, “Triazole-substituted anthranilamides as pesticides” (Bayer Cropscience AG, priority 2010, dated 2013):
Read-outs that look alike come from different tables or passages of the source.

Tests used:
[1] = tested on: green peach aphid (Myzus persicae); experiment: Myzus test (MYZUPE spray treatment), Use Example 4; type: in vivo; conditions: 144 h; for pest or weed control at 100 g/ha: read-out: activity in %
Method in brief: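 Compound was formulated in acetone/dimethylformamide with alkylaryl polyglycol ether emulsifier and diluted in emulsifier-containing water. It was sprayed onto Chinese cabbage leaf discs infested with all stages of Myzus persicae. Mortality (%) was scored after 6 days, where 100% means all aphids killed.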

[2] = tested on: larvae of the mustard beetle (Phaedon cochleariae); experiment: Phaedon test (PHAECO spray treatment); type: in vivo; conditions: 168 h, read-out: activity in %
Method in brief: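 Mortality of mustard beetle larvae, expressed as percent killed (100% all, 0% none), assessed 7 days after spraying. Spray liquor made from compound in acetone plus dimethylformamide with alkylaryl polyglycol ether, diluted in emulsifier-containing water to the desired concentration.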

[3] = log P determination by HPLC on reversed-phase columns (EEC Directive 79/831 Annex V.A8); type: physicochemical; conditions: pH 2.7
Method in brief: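 Calibration used unbranched alkan-2-ones of 3 to 16 carbons with known log P, values interpolated linearly from retention times between neighbouring standards. Acidic-range LC-MS run at pH 2.7, eluents aqueous and acetonitrile formic acid 0.1%, linear gradient 10% to 95% acetonitrile.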

[4] = tested on: caterpillars of the armyworm (Spodoptera frugiperda); experiment: Spodoptera frugiperda test (SPODFR spray treatment); type: in vivo; conditions: 168 h, read-out: activity in %
Method in brief: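 Percent caterpillar mortality read 7 days after infestation (0% none killed, 100% all killed). Treatment was a spray of the acetone/DMF/emulsifier formulation, water-diluted to test concentration, onto Zea mays leaf discs, allowed to dry before larvae were added.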

[5] = HPLC on reversed-phase columns (C 18), EEC Directive 79/831 Annex V.A8, read-out: logP

Structure (SMILES) | pest or weed control at 100 g/ha ([1]; 100 g/ha, after 6 days) [%] | pest or weed control at 100 g/ha ([2]; 100 g/ha, after 7 days) [%] | chromatographic logP [3] | pest or weed control at 100 g/ha ([4]; 100 g/ha, after 7 days) [%] | pest or weed control at 100 g/ha [1] [%] | pest or weed control at 100 g/ha [2] [%] | chromatographic logP [3, 5] | pest or weed control at 100 g/ha [4] [%] | pest or weed control at 500 g/ha ([1]; 500 g/ha, after 6 days) [%] | chromatographic logP ([3]; reversed-phase C18 HPLC column, HPLC on reversed-phase columns (C 18), EEC Directive 79/831 Annex V.A8, read-out: logP)
Cc1cc(Cl)cc(C(=O)NCC2CC2)c1NC(=O)c1cc(Cn2ncc(C(F)(F)C(F)(F)F)n2)nn1-c1ncccc1Cl [Example 349] | 80 | 100 | 3.96 | 100 |  |  |  |  |  | 
CCNC(=O)c1cc(Cl)cc(C)c1NC(=O)c1cc(Cn2ncc(C(F)(F)C(F)(F)F)n2)nn1-c1ncccc1Cl [Example 350] | 80 | 100 | 3.66 | 100 |  |  |  |  |  | 
CNC(=O)c1cc(Cl)cc(C)c1NC(=O)c1cc(Cn2ncc(C(F)(F)C(F)(F)F)n2)nn1-c1ncccc1Cl [Example 352] | 80 | 100 | 3.4 | 100 |  |  |  |  |  | 
Cc1cc(C#N)cc(C(=O)NC2CC2)c1NC(=O)c1cc(Cn2ncc(C(F)(F)C(F)(F)F)n2)nn1-c1ncccc1Cl [Example 353] | 100 | 100 | 3.25 | 100 |  |  |  |  |  | 
Cc1cc(I)cc(C(=O)NC(C)(C)C)c1NC(=O)c1cc(Cn2ncc(C(F)(F)C(F)(F)F)n2)nn1-c1ncccc1Cl [Example 356] | 80 | 100 | 4.47 | 100 |  |  |  |  |  | 
CNC(=O)c1cc(I)cc(C)c1NC(=O)c1cc(Cn2ncc(C(F)(F)C(F)(F)F)n2)nn1-c1ncccc1Cl [Example 358] | 80 | 100 | 3.64 | 100 |  |  |  |  |  | 
Cc1cc(Cl)cc(C(N)=O)c1NC(=O)c1cc(Cn2ncc(C(F)(F)C(F)(F)F)n2)nn1-c1ncccc1Cl [Example 359] | 100 | 100 | 3.12 | 100 |  |  |  |  |  | 
Cc1cc(Cl)cc(C(=O)NC(C)(C)C)c1NC(=O)c1cc(Cn2ncc(C(F)(F)C(F)(F)F)n2)nn1-c1ncccc1Cl [Example 360] | 80 | 100 | 4.27 | 100 |  |  |  |  |  | 
Cc1cc(Cl)cc(C(=O)NC(C)C)c1NC(=O)c1cc(Cn2ncc(C(F)(F)C(F)(F)F)n2)nn1-c1ncccc1Cl [Example 361] | 80 | 100 | 3.89 | 100 |  |  |  |  |  | 
Cc1cc(Cl)cc(C(=O)NC2CC2)c1NC(=O)c1cc(Cn2ncc(C(F)(F)C(F)(F)F)n2)nn1-c1ncccc1Cl [Example 362] | 80 | 100 | 3.62 | 100 |  |  |  |  |  | 
CCNC(=O)c1cc(C#N)cc(C)c1NC(=O)c1cc(Cn2ncc(C(F)(F)C(F)(F)F)n2)nn1-c1ncccc1Cl [Example 363] | 100 | 100 | 3.26 | 100 |  |  |  |  |  | 
Cc1cc(C#N)cc(C(=O)NC(C)C)c1NC(=O)c1cc(Cn2ncc(C(F)(F)C(F)(F)F)n2)nn1-c1ncccc1Cl [Example 364] | 100 | 100 | 3.52 | 100 |  |  |  |  |  | 
CNC(=O)c1cc(C#N)cc(C)c1NC(=O)c1cc(Cn2ncc(C(F)(F)C(F)(F)F)n2)nn1-c1ncccc1Cl [Example 365] | 100 | 100 | 3.04 | 100 |  |  |  |  |  | 
CNC(=O)c1cc(Cl)cc(C)c1NC(=O)c1cc(Cn2ncc(C(F)(F)C(F)(F)C(F)(F)F)n2)nn1-c1ncccc1Cl [Example 368] |  |  |  |  | 100 | 100 | 3.76 | 100 |  | 
CCNC(=O)c1cc(C#N)cc(C)c1NC(=O)c1cc(Cn2ncc(C(F)(F)C(F)(F)C(F)(F)F)n2)nn1-c1ncccc1Cl [Example 372] |  |  |  |  | 100 | 100 | 3.65 | 100 |  | 
CSC[C@H](C)NC(=O)c1cc(I)cc(C)c1NC(=O)c1cc(Cn2ncc(C(F)(F)C(F)(F)C(F)(F)F)n2)nn1-c1ncccc1Cl [Example 373] |  |  |  |  | 100 | 100 | 4.65 | 100 |  | 
Cc1cc(I)cc(C(N)=O)c1NC(=O)c1cc(Cn2ncc(C(F)(F)C(F)(F)C(F)(F)F)n2)nn1-c1ncccc1Cl [Example 381] |  |  |  |  | 100 | 100 | 3.7 | 100 |  | 
CSC[C@H](C)NC(=O)c1cc(Cl)cc(C)c1NC(=O)c1cc(Cn2ncc(C(F)(F)C(F)(F)C(F)(F)F)n2)nn1-c1ncccc1Cl [Example 383] |  |  |  |  | 80 | 100 | 4.41 | 100 |  | 
Cc1cc(Cl)cc(C(N)=O)c1NC(=O)c1cc(Cn2ncc(C(F)(F)C(F)(F)C(F)(F)F)n2)nn1-c1ncccc1Cl [Example 384] |  |  |  |  | 100 | 100 | 3.5 | 100 |  | 
CNC(=O)c1cc(C#N)cc(C)c1NC(=O)c1cc(Cn2ncc(C(F)(F)C(F)(F)C(F)(F)F)n2)nn1-c1ncccc1Cl [Example 387] |  |  |  |  | 100 | 100 | 3.39 | 100 |  | 
Cc1cc(Cl)cc(C(=O)NC(C)(C)C)c1NC(=O)c1cc(Cn2nc(C(F)(F)F)c(C(F)(F)F)n2)nn1-c1ncccc1Cl [Example 393] | 90 | 100 | 4.59 | 100 |  |  |  |  |  | 
Cc1cc(C#N)cc(C(N)=O)c1NC(=O)c1cc(Cn2nc(C(F)(F)F)c(C(F)(F)F)n2)nn1-c1ncccc1Cl [Example 396] | 90 | 100 | 3.21 | 100 |  |  |  |  |  | 
CSC[C@H](C)NC(=O)c1cc(C#N)cc(C)c1NC(=O)c1cc(Cn2nc(C(F)(F)F)c(C(F)(F)F)n2)nn1-c1ncccc1Cl [Example 400] |  | 100 |  | 100 |  |  |  |  | 100 | 4.05
Cc1cc(I)cc(C(N)=O)c1NC(=O)c1cc(Cn2nc(C(F)(F)F)c(C(F)(F)F)n2)nn1-c1ncccc1Cl [Example 402] | 80 | 100 | 3.67 | 100 |  |  |  |  |  | 
CSC[C@H](C)NC(=O)c1cc(Cl)cc(C)c1NC(=O)c1cc(Cn2nc(C(F)(F)F)c(C(F)(F)F)n2)nn1-c1ncccc1Cl [Example 408] | 90 | 100 | 4.4 | 100 |  |  |  |  |  | 
Cc1cc(C#N)cc(C(=O)NC(C)(C)C)c1NC(=O)c1cc(Cn2nc(C(F)(F)F)c(C(F)(F)F)n2)nn1-c1ncccc1Cl [Example 412] | 80 | 100 | 4.16 | 100 |  |  |  |  |  | 
CNC(=O)c1cc(C#N)cc(C)c1NC(=O)c1cc(Cn2nc(C(F)(F)F)c(C(F)(F)F)n2)nn1-c1ncccc1Cl [Example 414] | 100 | 100 | 3.43 | 100 |  |  |  |  |  | 
